Results from US4440757A, “Pharmaceutical composition comprising derivative of aminobenzoic acid for regulating prostaglandin” (priority 1978, dated 1984).

Legend:
dog's stomach = type: in vivo, Beagle dog; conditions: dog, in vivo
Method: Five grams of the present substance (each of Specimens Nos. 1, 2, 3, 4, 5, 6, 7, 8, 9, 10 and 11) and of aspirin were respectively administered to each Beagle of body weight of 9 to 12 kg as an aqueous suspension in distilled water of adjusted pH of 3, and after 90 min of the administration, the state of hemorrhage in the dog's stomach was examined.

Ehrlich cancer cells = test: PGE in Ehrlich tumour tissue and tumour proliferation (i.p.); type: in vivo, female C57BL/6 mouse; conditions: 100 mg/kg i.p. every other day, 14th day
Method: Ehrlich cancer cells were transplanted subcutaneously to groups of female C57BL/6 mouse after 9 weeks of birth at a rate of 1×10^6 and while feeding the mice, the present substance, Specimen No. 7, was intraperitoneally administered to the mice every other day from the next day of the transplantation at a rate of 100 mg/kg. On 14th day of the transplantation, the mice were sacrificed with ether to extirpate the tumor tissue. After homogenizing the tumour tissue finely cut by scissors with the addition of 7 ml of methanol per gram of the tumour tissue at a temperature of 0° C., the homogenate was filtered with filter paper to obtain a filtrate. After adding 2 times by volume of chloroform to the filtrate, the mixture was well mixed and left for 30 min at 4° C. Then, the cooled mixture was subjected to the same procedures as in Example 11 to determine the content of PGE in the tumour tissue. The content of PGE in the tumour tissue was larger in the animal transplanted with the cancer cells and administered with the present substance than in the control transplanted with the same cancer cells but not administered with the present substance. This face gives an information concerning the participation of the present substance in the metabolism of PGs.

Ehrlich's cancer cell = test: PGE in Ehrlich tumour and tumour weight (oral); type: in vivo, female C57BL/6 mouse; conditions: 1 g/kg/day oral
Method: Ehrlich's cancer cell were transplanted subcutaneously to groups of female C57BL/6 mouse after 8 weeks of her birth and while feeding the mice, the present substance, Specimen No. 7, was orally administered to each mouse every day at a rate of 1 g/kg/day. On 7th or 14th day of the transplantation, the mice were sacrificed with ether to extirpated the tumour. The tumour was treated by the same procedures as in Example 11 to determine the content of PGE therein. The concentration of PGE in the tumour was larger in the animal transplanted with the cells and administered with the present substance than in the control to which the same cells were transplanted but the present substance was not administered. Further it is observed that the content of PGE decreased in both groups as the time passed, and the rate of decrease was smaller in the group transplanted and administered than in the control group transplanted but not administered. These facts give the information that the present substance participates to the metabolism of PGE.

MH-134 tumor = test: Preventing the metastasis of a transplanted tumour; type: in vivo, C3H/He mouse; conditions: for Number of metastatic lesion: not administered 4.5
Method: Cells of MH-134 tumor were transplanted to a C3 H/He mouse from its caudal vein at a rate of 2×10^6 cells/animal. The present substance, Specimen No. 7, was administered to the mouse respectively, 6, 3 and one hours before, and 1, 3 and 6 hours after the transplantation once at a rate of 1000 mg/kg forcibly p.o.
The mouse was sacrificed on 14th day of the transplantation to extirpate the lungs to examine the number of the metastatic lesion.

male Donryu rats = test: Stress ulcer of the stomach and 6-keto PGF1α; type: in vivo; conditions: 1 g/kg p.o.; for Ulcer-coefficient: 7 hours stress, control 100; for Amount of 6-keto PGF1α: plasma, control 3.3
Method: Three groups of male Donryu rats of body weight of 220 to 250 g after 23.5 hours of fasting were administered orally with the present substance (each of Specimen Nos. 4, 7 and 8) at a rate of one gram/kg dissolved in 8 ml (per 200 g body weight) of an aqueous physiological saline solution.
These three groups of rats and another group of rats equally fasted for 23.5 hours and then administered with only the aqueous physiological saline solution were put into the stresscage, and soaked in water at a temperature of 23° C. to the depth of their breast to load the stress on the rats.
After 7 hours of soaking, the rats were pulled out from water and were immediately sacrificed to collect the whole blood, and their stomachs were extirpated. The plasma fraction prepared from the blood was extracted with ether and the etherextract was separated by thin layer chromatography. The separated extract, after converted to the respective methyloximesilyl derivatives, was subjected to gaschromatography-mass spectorography to determine the content of 6-keto PGF1α.
An aqueous 1% solution of formaldehyde was injected into the extirpated stomach and after 10 min of injection, the stomach was cut to be opened at the greater curvature side to examine the mucous membrane of the gastric body. The longer span of each erosion in the mucous membrane of a rat, if any, was measured microscopically, and its sum expressed by millimeter was taken as an ulcer coefficient of the rat.

[1] = tested on: sarcoma induced by methylcholanthrene; 6-keto PGF1α; test: Level of 6-keto PGF1α in plasma of sarcoma-bearing rats; type: in vivo, spontaneous hypertensive rats (SHR); conditions: 500 mg/kg/day i.p., 6 days
Method: Cells of sarcoma induced by methylcholanthrene were transplanted on the back of a group of spontaneous hypertensive rats (SHR) subcutaneously at a rate of 1×10^6 cells/animal, and while feeding the rats, the present substance, Specimen No. 7, was daily administered intraperitoneally for consecutive 6 days from after 24 hours of the transplantation at a rate of 500 mg/kg/day. After 2 weeks of the ending of administration, whole blood was collected to obtain a fraction of plasma. The ether-extract of the plasma was separated by thin layer chromatography and after converting the extract into a methyloximesilyl derivative, the variation of the level 6-keto PGF1α in the extract was examined by gas-chromatography and masspectroscopy.

male Sprague-Dowley rats = test: Leakage of dye-staff after skin stimulation with histamine and PGE1; type: in vivo; conditions: 1000 mg/kg p.o.; with histamine + PGE1
Method: To the three groups of male Sprague-Dowley rats of the total six groups, the respective present substances (Specimens Nos. 4, 7 and 8) were forcibly administered by oral route at the rate of 1000 mg/kg, the other three groups being administered nothing at this time. After 60 min of the administration, a mixture of PGE1 (2.5×10^-11 mol/animal) and histamine (2×10^-8 mol/animal) was intracutaneously injected under light […] into the shaved skin of an abdominal part of four groups of the rats including three groups administered with the present substance.

## O=C(O)c1ccc(NC2OC[C@@H](O)[C@H](O)[C@H]2O)cc1 (stereo partly drawn) [Specimen No. 7, Sodium p-aminobenzoate-N--D-xyloside]
dog's stomach
  hemorrhage in the stomach: no hemorrhage in the stomach was found
Ehrlich cancer cells; control 1.30
  Weight of tumour tissue: 0.75 g
Ehrlich cancer cells; control 1.77
  Content of PGE in the tumour tissue: 3.98 ng/g
Ehrlich's cancer cell; 7th day, control 0.09
  Weight of tumour: 0.08 g
Ehrlich's cancer cell; 7th day, control 2.59
  Content of PGE in the tumour: 2.80 ng/g
Ehrlich's cancer cell; 14th day, control 0.84
  Weight of tumour: 0.67 g
Ehrlich's cancer cell; 14th day, control 1.16
  Content of PGE in the tumour: 1.65 ng/g
MH-134 tumor; 1000 mg/kg p.o. 1 hour after, printed 7/10
  Rate of positive metastasis: 70%
MH-134 tumor; 1000 mg/kg p.o. 1 hour before, printed 7/9
  Rate of positive metastasis: 77.8%
MH-134 tumor; 1000 mg/kg p.o. 3 hours after, printed 9/10
  Rate of positive metastasis: 90%
MH-134 tumor; 1000 mg/kg p.o. 3 hours before, printed 8/9
  Rate of positive metastasis: 88.9%
MH-134 tumor; 1000 mg/kg p.o. 6 hours after, printed 10/10
  Rate of positive metastasis: 100%
MH-134 tumor; 1000 mg/kg p.o. 6 hours before transplantation, printed 10/10
  Rate of positive metastasis: 100%
MH-134 tumor; 1 hour after
  Number of metastatic lesion: 2.6
MH-134 tumor; 1 hour before
  Number of metastatic lesion: 2.2
MH-134 tumor; 3 hours after
  Number of metastatic lesion: 3.0
MH-134 tumor; 3 hours before
  Number of metastatic lesion: 1.9
MH-134 tumor; 6 hours after
  Number of metastatic lesion: 3.5
MH-134 tumor; 6 hours before
  Number of metastatic lesion: 2.3
Male Donryu rats
  Ulcer-coefficient: 58%
  Amount of 6-keto PGF1α: 3.9 ng/mL
[1]
  level of 6-keto PGF1 in the blood of cancer-bearing rat (FIG. 14): almost same as in normal rat
Male Sprague-Dowley rats
  Absorbance at 620 nm (dye leakage): 0.152

## C[C@@H]1OC(Nc2ccc(C(=O)O)cc2)[C@H](O)[C@H](O)[C@H]1O (stereo partly drawn) [Specimen No. 8, Sodium p-aminobenzoate-N--L-rhamnoside]
dog's stomach
  hemorrhage in the stomach: no hemorrhage in the stomach was found
Male Donryu rats
  Ulcer-coefficient: 55%
  Amount of 6-keto PGF1α: 3.6 ng/mL
Male Sprague-Dowley rats
  Absorbance at 620 nm (dye leakage): 0.162

## O=C(O)c1ccc(NC2O[C@H](CO)[C@@H](O)[C@H](O)[C@@H]2O)cc1 (stereo partly drawn) [Specimen No. 4, Sodium p-aminobenzoate-N--D-mannoside]
dog's stomach
  hemorrhage in the stomach: no hemorrhage in the stomach was found
Male Donryu rats
  Ulcer-coefficient: 62%
  Amount of 6-keto PGF1α: 3.8 ng/mL
Male Sprague-Dowley rats
  Absorbance at 620 nm (dye leakage): 0.155
